Values quoted from earlier work, collected in patent US20220184234A1, “METABOLIC TARGETING OF LOW GRADE TUMORS” (SonalaSense, Inc., priority 2020, published 2022).

Test system: tumor
[1] = all experimental groups (5-ALA and FUS)

SMILES: NCC(=O)CCC(=O)O [5-ALA, 5-aminolevulinic acid]
- normalized tumor volume (5-ALA only group (no FUS), untreated controls 32±10 mm^3): 24±6 mm^3
- subjects surviving past 60 days (5-ALA, group sonicated at multiple points within the tumor (MP group)): 50%
- survival compared to control animals [1]: improved survival
- tumor growth compared to control animals [1]: inhibited tumor growth
- tissue damage (rats, 20 mg/kg 5-ALA, sonication at 55.2 W/cm^2 for 20 minutes): suffered tissue damage
